Laboratory results published in PubChem BioAssay AID2401 (Southern Research Specialized Biocontainment Screening …, 2010).

System: S. Typhimurium GFP reporter counter-screen, fluorescence, 4 h
Assay: nmpC-GFP reporter counter-screen in S. Typhimurium, dose response, counter-screen for PhoP regulon inhibitor project, Salmonella Typhimurium, GFP fluorescence (AID 2401);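 note: S. typhimurium with Mg-insensitive nmpC-GFP reporter grown at 10 µM Mg2+; drop in reporter fluorescence reflects general culture growth inhibition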

| Compound | IC50 [µM] |
| --- | --- |
| CC(C)CCNCC(O)CON=C1c2ccccc2-c2ccccc21 (configuration not stated) | 126 |
| CCCCCCOC(=O)C[N+](C)(C)CCOC1CC2CCC1(C)C2(C)C (configuration not stated) | 31.9 |
| CCCCCOc1ccc(CSC(=N)N)cc1[N+](=O)[O-] | 46.8 |
| O=C(CN1CC(c2ccccc2)CC1=O)N/N=C/c1cc(Br)ccc1O (configuration not stated) | 139 |
| O=[N+]([O-])c1cc(/C=N/Nc2nc3ccccc3[nH]2)c(O)cc1O | 18.2 |
| COc1cc(/C=C/[N+](=O)[O-])ccc1O | 32.6 |
| CCCOc1ccc(Br)cc1CSC(=N)N | 134 |
| COc1ccc(OCC(O)CNc2ccc(Br)cc2)cc1 (configuration not stated) | 14.3 |
| Oc1c(C(Nc2nc3ccccc3s2)c2ccco2)ccc2cccnc12 (configuration not stated) | 104 |
| Oc1ccc(CN2CCCc3ccccc32)c2cccnc12 | 28.5 |
| FC(F)(F)c1ccc2c(c1)N(CCCN1CCN(CCCl)CC1)c1ccccc1S2 | 110 |
| C[C@H]1c2cccc(O)c2C(O)=C2C(=O)[C@]3(O)C(O)=C(C(N)=O)C(=O)[C@@H](N(C)C)C3[C@@H](O)C21 (some centres not stated) | 2.3 |
| CO[C@@]1(NC(=O)C2SC(=C(C(N)=O)C(=O)O)S2)C(=O)N2C(C(=O)O)=C(CSc3nnnn3C)CS[C@@H]21 (some centres not stated) | 26.9 |
| CC(=O)Oc1ccc(C(=O)[C@H]2[C@H]3C(=O)N(c4ccc5ccccc5c4)C(=O)[C@H]3[C@@H]3C=CC=NN32)cc1 | 128 |
| CCn1cc(C(=O)O)c(=O)c2cc(F)c(N3CCNCC3)cc21 | 0.88 |
| CCCCCCCCNC(C)C(O)c1ccc(SC(C)C)cc1 (configuration not stated) | 75.3 |
| CCN1CCN(C(c2cccnc2)c2cc(Cl)c3cccnc3c2O)CC1 (configuration not stated) | 36 |
| Cc1ccccc1OCc1n(CC(=O)OC2CC(C)CCC2C(C)C)c2ccccc2[n+]1C (configuration not stated) | 65.6 |
| NC1=NC[C@H](c2ccccc2)N1CCCCC1CCCCC1 | 52.2 |
| CCCCCCCCCCOC(=O)Cn1c(COc2cccc(C)c2)[n+](C)c2ccccc21 | 19.7 |
| COc1ccccc1CNCC(O)Cn1c2ccccc2c2ccccc21 (configuration not stated) | 92 |
| CCCC(=O)NC(c1ccc(N(C)C)cc1)c1ccc2cccnc2c1O (configuration not stated) | 107 |

| Compound | IC50 [µM] |
| --- | --- |
| Cc1ccc(Nc2nc(N)c3ccccc3n2)cc1Cl | 52.2 |
| O=[N+]([O-])c1ccc(N/N=C/c2ccc[nH]2)cc1 | 62 |
| N=c1n(CC(=O)c2ccc(Br)s2)c2ccccc2n1Cc1ccccc1 | 40.4 |
| O=c1c(O)cccc2cc(O)c(O)c(O)c12 | 21.9 |
| CCCCCC(CC(=O)NO)C(=O)NC(C(=O)N1CCCC1CO)C(C)C (configuration not stated) | 144 |
| CCCCCCCCCn1c2c(c(=N)c3c1CCC3)CCCC2 | 31.3 |
| CNC(=S)N1CCN(c2c(F)cc3c(=O)c(C(=O)O)cn(C4CC4)c3c2OC)CC1C (configuration not stated) | 44.2 |
| C#CCOCCOCCOCCNc1nc(N2CCN(C(=O)CCCCCCCCCCNC(=O)[C@H]([C@@H](C)CC)n3cc(CCCCN=C(N)N)nn3)CC2)nc(N2CCN(C(=O)CCCCCCCCCCNC(=O)[C@H](CCCN=C(N)N)n3cc(C[C@@H](C)CC)nn3)CC2)n1 | 45.9 |
| COc1ccc(C(C[N+](=O)[O-])c2c(-c3ccccc3)cc3ccccn23)cc1 (configuration not stated) | 29.9 |
| CSc1ccc2c(c1)C(N1CCN(C)CC1)Cc1ccccc1S2 (configuration not stated) | 87.2 |
| CCCCCCCCCCOC(=O)Cn1c(COc2ccc(Cl)cc2)[n+](C)c2ccccc21 | 19.5 |
| Clc1ccc(CN2CCC(c3nc4ccc(Cl)cc4[nH]3)CC2)cc1 | 22.4 |
| Cc1ccc(Nc2c3c(nc4ccccc24)CCC3)cc1 | 122 |
| Cc1ccc(C(C[N+](=O)[O-])c2c(-c3ccccc3O)[nH][nH]c2=O)cc1 (configuration not stated) | 14.9 |
| O=[N+]([O-])c1cc(O)c2ncccc2c1 | 16.8 |
| CCN(CC)c1ccc(/C=N/Nc2nc3ccccc3[nH]2)c(O)c1 | 33.7 |
| Cc1ccc(S(=O)(=O)/N=C2/C=C(Sc3ncn[nH]3)C(=O)c3ccccc32)cc1 | 32.6 |
| CN(C)C1C(=O)C(C(N)=O)=C(O)C2(O)C(=O)C3=C(O)c4c(O)cccc4C(C)(O)C3CC12 (configuration not stated) | 1.01 |
| CCCCCN=C(N)N/N=C/c1c[nH]c2ccc(OC)cc12 | 37 |
| CCn1cc(C(=O)O)c(=O)c2cc(F)c(N3CCN(C(=S)NC(=O)c4cccc(F)c4)CC3)cc21 | 69.6 |
| O=c1[nH][nH]c(-c2ccccc2O)c1C(C[N+](=O)[O-])c1cccc(Cl)c1 (configuration not stated) | 69.8 |
| CC1CCC(C(C)C)C(OC(=O)Cn2c(-c3ccc(Cl)cc3)[n+](C)c3ccccc32)C1 (configuration not stated) | 82.9 |

| Compound | IC50 [µM] |
| --- | --- |
| Oc1cccc(/C=N/NC(=S)Nc2cccnc2)c1O | 28.5 |
| O=C(CSc1ccccn1)N/N=C/c1cc([N+](=O)[O-])ccc1O | 34.9 |
| CCN(CC(=O)NC(C)(C)C)C(=O)COc1c(Cl)cc(Cl)c2ccc(C)nc12 | 82.4 |
| CNc1nc(NCc2ccccc2)c2ccccc2n1 | 79.3 |
| O=C(O)c1cc(O)c2c(c1)[C@@H]([C@H]1c3cc(C(=O)O)cc(O)c3C(=O)c3c(O[C@@H]4O[C@H](CO)[C@@H](O)[C@H](O)[C@H]4O)cccc31)c1cccc(OC3O[C@H](CO)[C@@H](O)[C@H](O)[C@H]3O)c1C2=O (some centres not stated) | 83.6 |
| CCCCCCCNC(=O)C1(CC2CC(c3ccc(Cl)cc3)=NO2)CCNCC1 (configuration not stated) | 42.5 |
| OCCNCc1c(OCc2ccc(Cl)cc2)ccc2ccccc12 | 90 |
| O=C1c2ccccc2NC(c2ccc(-c3ccc(Br)cc3)o2)N1O (configuration not stated) | 38.7 |
| N#CC1=C(S)N(c2ccccc2)C(c2ccc(-c3ccccc3Cl)o2)NC1=O (configuration not stated) | 144 |
| CCCCNC(=O)c1cn(CC)c2cc(N3CCN(C)CC3)c(F)cc2c1=O | 41.8 |
| Oc1c(Cl)cc(Cl)c2cccnc12 | 10.5 |
| Cc1ccc(Nc2nc(NCc3ccco3)c3ccccc3n2)cc1 | 22.2 |
| COc1c(N2CCNC(C)C2)c(F)cc2c(=O)c(C(=O)O)cn(C3CC3)c12 (configuration not stated) | 1.05 |
| CC(Cc1ccccc1)NCc1ccccc1O (configuration not stated) | 28.2 |
| N=c1n(Cc2ccccc2)c2ccccc2n1CC(O)COc1ccc(Cl)cc1Cl (configuration not stated) | 25.9 |
| O=C(O)Cc1sc(Nc2ccc(Cl)cc2)nc1-c1cccs1 | 147 |
| CCn1cc(C(=O)O)c(=O)c2cc(F)c(N3CCN(C)CC3)cc21 | 2.15 |
| O=C(NNC(=O)c1cnccn1)c1ccc(Cl)cc1 | 117 |
| CC(=O)NC(c1ccc(C)cc1)c1cc([N+](=O)[O-])c2cccnc2c1O (configuration not stated) | 33.5 |
| O=C1C(=O)c2ccccc2-c2ccccc21 | 10.7 |
| Cn1cnc([N+](=O)[O-])c1Oc1cccc(O)c1 | 143 |
| Clc1ccc(Cl)c(OCCCCNCc2ccccc2)c1 | 97.6 |

| Compound | IC50 [µM] |
| --- | --- |
| CC(=O)Oc1cc2cccc(OC(C)=O)c(=O)c2c(OC(C)=O)c1OC(C)=O | 62.8 |
| CCCCCCCCCCCCCCCCn1cc[n+](CC(C)=O)c1 | 33.9 |
| CCc1ccc(S(=O)(=O)/N=C2/C=C(Sc3ncn[nH]3)C(=O)c3ccccc32)cc1 | 76.9 |
| OC(c1cc(-c2ccc(C(F)(F)F)cc2)nc(C(F)(F)F)c1)C1CCCCN1 (configuration not stated) | 29.5 |
| NC1CCN(c2nc3c(cc2F)c(=O)c(C(=O)O)cn3-c2ccc(F)cc2F)C1 (configuration not stated) | 1.13 |
| CC(C(=O)NC1CCS(=O)(=O)C1)N1C(=O)/C(=C/c2ccc(Cl)cc2)SC1=S (configuration not stated) | 11.6 |
| CC(C(=O)c1ccc(-c2ccccc2)cc1)[n+]1cccc(NC(=O)c2ccccc2)c1 (configuration not stated) | 76.6 |
| COc1c(N2CCN[C@H](C)C2)c(F)cc2c(=O)c(C(=O)O)cn(C3CC3)c12 | 0.78 |
| CN1CCN(CCCN2c3ccccc3Sc3ccc(Cl)cc32)CC1 | 51 |
| CCCCCCCCCCOC(=O)Cn1c(COc2ccc(C)cc2)[n+](C)c2ccccc21 | 19.8 |
| O=C(Nc1ccccc1)Nc1ncc([N+](=O)[O-])s1 | 37.1 |
| C[CH2][Hg][S]c1ccccc1C(=O)O | 54.9 |
| O=C(c1ccccc1)c1c2c(cc3sc4ccccc4[n+]13)-c1cccc3cccc-2c13 | 82.2 |
| C=CC#CC[N+]1(CC#Cc2ccccc2)CCOCC1 | 34.3 |
| CCCNC(=O)c1cn(CC)c2cc(N3CCN(C)CC3)c(F)cc2c1=O | 48.2 |
| COC(=O)c1cc(C)nc2c1C(=O)C(=O)C=C2N1CCOCC1 | 118 |
| C[C@H]1c2cccc(O)c2C(O)=C2C(=O)[C@]3(O)C(O)=C(C(N)=O)C(=O)[C@@H](N(C)C)[C@@H]3[C@@H](O)[C@@H]21 | 2.87 |
| CCn1cc(C(=O)NCCN(C)C)c(=O)c2cc(F)c(N3CCN(C)CC3)cc21 | 89.8 |
| CC1(C)CC(=O)C(C(=O)/C=C/NCCc2ccccc2)C(=O)C1 | 122 |
| O=C(CN1CCCC1)N/N=C/c1c(O)ccc2ccccc12 | 29.9 |
| CN(C)C1C(=O)C(C(N)=O)=C(O)C2(O)C(=O)C3=C(O)c4c(O)cccc4C(C)(O)C3C(O)C12 (configuration not stated) | 0.58 |
| CCNC(=S)NNC(=O)c1ccccn1 | 36.4 |

| Compound | IC50 [µM] |
| --- | --- |
| COc1ccc(OCc2n(CC(=O)OC3CC(C)CCC3C(C)C)c3ccccc3[n+]2C)cc1 (configuration not stated) | 39.6 |
| O=C(NCCNc1ccc([N+](=O)[O-])cc1C(F)(F)F)c1cccc(F)c1 | 106 |
| Oc1ccc(/C=N/Nc2nccnc2Cl)c(O)c1 | 35 |
| Nc1nc2ccccc2n1CCOc1ccccc1Cl | 71.8 |
| CC(=O)NC(c1cccc([N+](=O)[O-])c1)c1ccc2cccnc2c1O (configuration not stated) | 47.1 |
| CNc1cc(Cl)c2nonc2c1[N+](=O)[O-] | 37.7 |
| CCC(C)(C)c1ccc(OCCCC[n+]2ccccc2)c(C(C)(C)CC)c1 | 34.9 |
| O=[N+]([O-])/C=C/c1cc2ccccc2[nH]1 | 138 |
| O=C1c2ccccc2C(=O)c2[nH]c(=O)[nH]c21 | 6.67 |
| COc1ccc(Nc2cc(C)c3c(O)cccc3n2)cc1 | 47.2 |
| Cc1ccc(C(C[N+](=O)[O-])c2c(N)n(C)c(=O)n(C)c2=O)cc1 (configuration not stated) | 15.1 |
| C=CCNc1ncnc2c1[nH]c1ccccc12 | 118 |
| Clc1ccc(CNCc2cccs2)cc1Cl | 76.1 |
| CC[C@H]1OC(=O)[C@H](C)[C@@H](O[C@H]2C[C@@](C)(OC)[C@@H](O)[C@H](C)O2)[C@H](C)[C@@H](O[C@@H]2O[C@H](C)C[C@H](N(C)C)[C@H]2O)[C@](C)(O)C[C@@H](C)CN(C)[C@H](C)[C@@H](O)[C@]1(C)O | 2.37 |
| NCCc1c(-c2ccccc2)n(-c2ccccc2)c2ccccc12 | 43.7 |
| CN(C)c1ccc(O)c2c1CC1CC3[C@@H](N(C)C)C(=O)C(C(N)=O)=C(O)[C@]3(O)C(=O)C1=C2O (some centres not stated) | 4.76 |
| O=C(NC(CO)C(O)c1ccc([N+](=O)[O-])cc1)C(Cl)Cl (configuration not stated) | 10.1 |
| O=C(N/N=C/c1c[nH]c2ccccc12)c1cc(-c2cccc3ccccc23)n[nH]1 | 85.3 |
| CN(C)c1ccc(/C=C/c2ccc3c4ccccc4ccc3[n+]2-c2ccccc2)cc1 | 18.8 |
